Results on one molecule are retold here after publication PMC7031697, “Mechanism of Activation of AMPK by Cordycepin” (Cell Chemical Biology, 2020).

Molecules are shown by their SMILES. Where two headings read alike, the source gives them in different places.

The subject of series [1] is HepG2 cells. The series is described as follows: Cellular oxygen consumption (Seahorse XF24). It counts as cell-based, human. How it is done:
Cellular oxygen consumption rate (OCR) was measured using a Seahorse XF24 Extracellular Flux Analyser with 50,000 cells per well, as described previously ([Hawley et al., 2010]). HepG2 cells were cultured overnight in 24 well plates (50,000 cells/well) in standard medium as above. One hour before the experiment, the medium was replaced with 675 μl of unbuffered medium, pH 7.4: 8.3 g/L DMEM base (Sigma), 2 mM GlutaMax-1, 5 mM glucose, 32 mM NaCl, and 40 μM Phenol Red. Compounds (75 μl) were injected into wells as specified, and OCR continuously measured as described by the manufacturers of the Analyser ([Wu et al., 2007]).

The test system of series [2] is HepG2 cells. The series is described as follows: Clonal survival assay, HepG2. In kind it is cell-based, human. Conditions: for EC50: Homo sapiens, read-out: half-maximal effect on cell survival. As to the method: Cells were seeded into 6-well plates at equal density and treated in triplicate at 40% to 60% confluence with vehicle or cordycepin for the indicated time. Cells were trypsinized in 1 ml trypsin:EDTA for 5 min and diluted in 1 ml of complete medium. Cells in control wells were counted using a hemocytometer and 1000 cells from vehicle and cordycepin-treated wells were seeded in triplicate into 10 cm dishes containing 10 ml of medium. The dishes were incubated at 37°C for 10-15 days. […] The dishes were washed with water and the number of colonies counted manually.

In another series the test system is AMPK DKO U2OS cells. The series is described as follows: Clonal survival assay, AMPK DKO U2OS. In kind it is cell-based. Conditions: Homo sapiens, 8 h incubation, read-out: half-maximal effect on clonal survival. An excerpt:
AMPK-α1^-/- -α2^-/- U2OS cells were generated using the Cas9 (D10A) double nickase system. Pairs of guide RNAs targeted to exon 4 in both PRKAA1 and PRKAA2, along with screening primers for genotyping, were designed and cloned by Thomas Macartney and are available by contacting MRCPPU Reagents and Services (https://mrcppureagents.dundee.ac.uk). Sense guides were cloned into the puromycin-selectable pBABED puro U6 vector and antisense guides into the Cas9 (D10A) vector pX335. U2OS cells carrying a Flp recombinase target site were transfected with 1 μg of each plasmid using Fugene6 according to manufacturers’ instructions. At 24 and 48 hr after transfection, medium was replaced with fresh medium containing 1 μg/ml puromycin. […] Clones were expanded and screened for loss of AMPK protein and activity by Western blotting using anti-AMPK-α and pACC antibody normalised to total ACC detected using streptavidin. […]
Cells were seeded into 6-well plates at equal density and treated in triplicate at 40% to 60% confluence with vehicle or cordycepin for the indicated time. […] Cells in control wells were counted using a hemocytometer and 1000 cells from vehicle and cordycepin-treated wells were seeded in triplicate into 10 cm dishes containing 10 ml of medium. […] The dishes were washed with water and the number of colonies counted manually.

In series [3] the test system is wild-type (WT) U2OS cells. The series is described as follows: Clonal survival assay, wild-type U2OS. It counts as cell-based. Conditions: Homo sapiens, 8 h incubation, read-out: half-maximal effect on clonal survival. How it is done: Cells were seeded into 6-well plates at equal density and treated in triplicate at 40% to 60% confluence with vehicle or cordycepin for the indicated time. Cells were trypsinized in 1 ml trypsin:EDTA for 5 min and diluted in 1 ml of complete medium. Cells in control wells were counted using a hemocytometer and 1000 cells from vehicle and cordycepin-treated wells were seeded in triplicate into 10 cm dishes containing 10 ml of medium. The dishes were incubated at 37°C for 10-15 days. On the last day, the medium was decanted, cells fixed with ice-cold methanol for 10 min and stained with 10% v/v Giemsa stain in water for 15 min. The dishes were washed with water and the number of colonies counted manually.

On the set-up of series [4]: method as in Wei et al., 2009. The note with it: mice, single oral dose of 63 mg/kg; ref Wei et al., 2009; cited from earlier work.
Series [5] can be described thus: Measurement of cordycepin in cell medium of HepG2 cells (LC-MS). The note with it: human, 100 μM added. It counts as in vitro ADME, human. As to the method:
(§1) The same LC-MS system was used to detect and quantify cordycepin. LC conditions were optimized using a TSKgel Amine-80 Column (100 × 1 mm, ID 5 μm, Part No.0020010, TOSOH Bioscience). Mobile phase buffer A consisted of 0.1% (v/v) formic acid and buffer B was in 80% (v/v) acetonitrile. The column was maintained at 40°C and was equilibrated with 98% buffer B for 5 min at a constant flow rate of 0.05 mL/min. Samples were diluted 1/1500 and aliquots of 4 μL of each sample loaded onto the column. Cordycepin was eluted by decreasing buffer B from 98% to 85% within 2 min and then to 10% within 5 min. Eluents were sprayed into the TSQ Quantiva which was run in positive mode with a spray voltage of 2700, sheath gas 40, aux gas 20, sweep gas 2. Levels of cordycepin were measured using multiple reaction monitoring mode (MRM) with optimized collision energies and radio frequencies previously determined by infusing pure compound. One transition (252 > 136) was used to detect and monitor cordycepin.

Series [6] concerns HepG2 cells. The series is described as above. The note with it: 100 μM added. It counts as in vitro ADME, human. How it is done: as §1

Regarding `Nc1ncnc2c1ncn2[C@@H]1O[C@H](CO)C[C@H]1O` [cordycepin, 3′-deoxyadenosine], in the series on HepG2 cells [1] (30 μM to 1 mM), the “effect on basal oxygen uptake” value is on record as “only minor effects”. In addition, in the series on HepG2 cells [1] (300 μM after 45 min and 1 mM after 30 and 45 min), the “inhibition of basal oxygen uptake” value was “modest inhibition”. For the same molecule, in the series with HepG2 cells [1] (after addition of the uncoupler 2,4-dinitrophenol), the “effect on maximal oxygen uptake” value was “no significant effects”. Also, the “effect on residual oxygen uptake” value in the series on HepG2 cells [1] (after subsequent addition of rotenone and antimycin A) was “no significant effects”. In addition, the “effect on clonal survival” value with HepG2 cells [2] (100 μM) is recorded as “only partial effects”; with HepG2 cells [2] (300 μM), “almost complete death”; with HepG2 cells [2] (1 mM), “almost complete death”. Also, the EC50 in the series with HepG2 cells [2] (2 h treatment) was determined as 130 µM; with HepG2 cells [2] (8 h treatment), 70 µM; in the series with HepG2 cells [2] (24 h treatment), 35 µM; in the series on AMPK DKO U2OS cells it was 44 ± 2 µM; in series [3] it was 81 ± 4 µM. In addition, the peak plasma concentration in series [4] was 10 µM. For the same molecule, the plasma half-life in series [4] was 2.1 h. Moreover, in series [4], the “time to peak plasma concentration” value is recorded as 1.5 h. This molecule registered a half-life at 100 μM in series [5] of approximately 1.33 h. Moreover, the “decline of cordycepin in the medium” value in the series with HepG2 cells [6] (by 2 h) is listed as 70%. Moreover, the “cordycepin remaining in the medium” value with HepG2 cells [6] (by 4 h) is “almost disappeared”.

In general, half-life refers to the time needed for the level to fall by half in the phase considered. Read a low half-life as rapid decline.
